Laboratory results reported in US20070259962A1, “Use of N-Arylhydrazine Derivatives for Combating Pests in and on Animals” (priority 2003, published 2007).

What was measured:
Aedes aegypti [1] = assay: contact activity via glass contact, yellowfever mosquito; settings: rate 10 ppm
Method: (§1) 1. Screening method to test contact activity against stable fly, yellowfever mosquito, house mosquito, malaria mosquito, cat flea, and brown dog tick via glass contact
(§2) Glass vials (20 ml scintillation vials) were treated with 0.5 ml of a solution of active ingredient in acetone. Each vial was rolled uncapped for ca. 10 minutes to allow the a.i. to completely coat the vial and to allow for full drying of the acetone. Insects or ticks were placed into each vial.
(§3) Each test was replicated at least 3 times.

Culex quinquefasciatus [2] = assay: contact activity via glass contact, house mosquito; settings: rate 0.5 ppm
Method: as §1, §2, §3

Aedes aegypti [3] = assay: contact activity via water treatment, yellowfever mosquito larvae; settings: yellowfever mosquito larvae (4th-instars), rate 10 ppm
Method: (§4) 2. Screening method to test contact activity against yellowfever mosquito, southern house mosquito, and malaria mosquito larvae via water treatment
(§5) Well plates were used as test arenas. The active ingredient was dissolved in acetone and diluted with water to obtain the concentrations needed. The final solutions containing appr. 1% acetone were placed into each well. Approximately 10 mosquito larvae (4th-instars) in 1 ml water were added to each well. Larvae were fed one drop of liver powder each day. The dishes were covered and maintained at 22° C. Mortality was recorded daily and dead larvae and live or dead pupae were removed daily. At the end of the test remaining live larvae were recorded and percent mortality was calculated.
as §3

Anopheles albimanus [4] = assay: contact activity via water treatment, malaria mosquito larvae; settings: malaria mosquito larvae (4th-instars), rate 1.0 ppm
Method: as §4, §5, §3

Anopheles albimanus [5] = assay: contact activity via glass contact, malaria mosquito; settings: rate 1 ppm
Method: as §1, §2, §3

Culex quinquefasciatus [6] = assay: contact activity via water treatment, southern house mosquito larvae; settings: house mosquito larvae (4th-instars), rate 10 ppm
Method: as §4, §5, §3

Ctenocephalides felis = assay: contact activity via glass contact, cat flea; settings: rate 100 ppm
Method: as §1, §2, §3

Stomoxys calcitrans = assay: contact activity via glass contact, stable fly; settings: rate 10 ppm
Method: as §1, §2, §3

Compound | Days or Hours to achieve 100% mortality (Aedes aegypti [1]) | Days or Hours to achieve 100% mortality (Culex quinquefasciatus [2]) | Days or Hours to achieve 100% mortality (Aedes aegypti [3]) | Days or Hours to achieve 100% mortality (Anopheles albimanus [4]) | Days or Hours to achieve 100% mortality (Anopheles albimanus [5]) | Days or Hours to achieve 100% mortality (Culex quinquefasciatus [6]) | Days or Hours to achieve 100% mortality (Ctenocephalides felis) | Days or Hours to achieve 100% mortality (Stomoxys calcitrans)
CCN/C(=N\Nc1c(Cl)cc(C(F)(F)F)cc1Cl)C(C)(C)C [I-1, N-ethyl-2,2-dimethylpropionamide-2-(2,6-dichloro-α,α,α-trifluoro-p-tolyl)-hydrazone] | 4 h | 4 h | 2 days | 1 days | 1 days | 1 days | 2 days | 4 h
CCN/C(=N\Nc1c(Cl)cc(C(F)(F)F)cc1Cl)C1(C)CC1(Cl)Cl (stereo not drawn) [1-2, N-Ethyl-2,2-dichloro-1-methylcyclopropane-carboxamide-2-(2,6-dichloro-α,α,α-trifluoro-p-tolyl)hydrazone] | 4 h | 4 h | 2 days | 1 days | 1 days | 1 days | 2 days | 4 h
